SMILES	melting point [°C]
CCc1nc2c(cnn2CC)c(NC2CCOCC2)c1CNC(=O)c1cccc(C(=O)NCc2ccc(Cl)c(-c3cccc(CN4CCCNCC4)c3)c2)c1	116 to 119
CN1CCN(c2c(F)c(NCc3ccccc3)c3c(=O)c(C(=O)O)cn(C4CC4)c3c2F)CC1	132 to 133
CC1=C(C(=O)OCC2COc3ccccc3O2)C(c2c(F)c(F)c(F)c(F)c2F)C2=C(CNCC2=O)N1 (stereo not given)	167 to 170
NS(=O)(=O)c1cc(C(=O)O)cc([N+](=O)[O-])c1Oc1cccc(C(F)(F)F)c1	210
C=CCNC(=O)CN1CCN(Cc2ccc3c(c2)NC(=O)C(C)O3)CC1 (stereo not given)	151 to 158
Cc1c(C)c2c(c(C)c1OCc1ccccc1)C(=O)CC(C)(COC(C)(C)C)O2 (stereo not given)	51 to 62
CN(C)c1ccc(C=CC(=O)c2ccc(OCCO)cc2)cc1	127 to 128
CN1Cc2c(C#C[Si](C)(C)C)ncn2-c2ccc(F)cc2C1=O	184 to 185
COc1ccc(-c2c(C)c3cccc4c3n2CC(CCN2CCN(c3cc(C)ccn3)CC2)O4)cc1 (stereo not given)	165
CCCCCCCCCCCCCCCCCCNP1OCC2(CO1)COP(NCCCCCCCCCCCCCCCCCC)OC2 (stereo not given)	67 to 70
Cc1ccc(C=Cc2ccccc2)cc1C	76
CCCN(c1c2c(nc3ccccc13)CCCC2)n1cc(C)c2ccccc21	142 to 144
Fc1ccc(-c2nc(-c3ccccc3)cn2-c2ccncc2)cc1	90 to 92
CCOC(=O)Nc1nc2ccccc2c2c(CC(C)C)n(C)nc12	120 to 121
CCOc1cc2c(O)c(C)cnc2nc1C	238 to 242
Cc1ccc(OCc2ccccc2)c2[nH]c(CCc3ccccc3)nc12	203 to 204
CC(C)(Cc1ccccc1)C(O)CCN1C(=O)NC(=O)C1CCCCCCC(=O)O (stereo not given)	115
CC(C)(C)CC(C)(C)c1cc(N=Nc2cc([N+](=O)[O-])ccc2Cl)c(O)c(C(C)(C)c2ccccc2)c1	153 to 156
CN(C(N)=O)c1nc(Cl)nc(Cl)n1	172 to 174
CC(NCC#N)C(O)(Cn1cncn1)c1ccc(F)cc1F (stereo not given)	138 to 139
O=C(NCCCc1cccc2oc(CCCCc3ccccc3)cc12)C1CC1	70 to 71
CCCNC1CCC(O)CC1 (stereo not given)	20

SMILES	melting point [°C]
O=C(OI(OC(=O)C(F)(F)F)C(F)(F)C(F)(F)C(F)(F)C(F)(F)C(F)(F)C(F)(F)F)C(F)(F)F	60 to 62
CC(C)(C)CC(=O)c1ccc2c(c1)C=C(C(=O)O)C(C(F)(F)F)O2 (stereo not given)	198 to 200
CC(C)=NNC(=O)NCCCN(C)C	49 to 53
CC12CCC(C(=Cc3ccc(CC(SSCC(=O)O)C(=O)O)cc3)C1=O)C2(C)C (stereo not given)	116
CCCc1c(OCCCOc2ccc(C(C)=O)c(OCc3ccccc3)c2CCC)ccc2c1OC(CO)CC2 (stereo not given)	83 to 85
c1cc(-c2cnc(-c3ccc(-c4cnco4)o3)o2)nc(-c2cnc(-c3ccc(-c4cnco4)o3)o2)c1	> 250
NC(=O)C1CN(CCCCN(c2ccc(F)cc2)c2ccc(F)cc2)CCN1 (stereo not given)	67.4
CC(=O)Nc1nc(CN2CCN(C(c3ccccc3)c3ccccc3)CC2)cs1	178 to 179
Cc1ccc2c(c1)c(=O)c1c(cnn1C)n2CCCNS(C)(=O)=O	179
N#CC(C#N)(CCCSC(F)(F)F)CC(F)(F)C(F)(F)C(F)(F)C(F)(F)C(F)(F)F	88 to 90
CC(=O)OC1CSC(Oc2cnc(Cl)c(Cl)c2)C(OC(C)=O)C1OC(C)=O (stereo not given)	128
Cc1cc2nc(C(C)(C)C(=O)O)cn2nc1OCCCN1CCC(OC(c2ccccc2)c2ccccc2)CC1	122
CCN1CCc2nc(N3CCN(Cc4ccccc4)CC3)ncc2C1=O	128 to 130
O=S1(=O)O[C@H](COCc2ccccc2)CC[C@@H](COCc2ccccc2)O1	57 to 59
CS(=O)c1ccc(C(=O)Cc2ccccc2)cc1 (stereo not given)	104
CCCCCCCCC1(C)Cc2ccc(-c3nc4cc(CCCC)ccc4o3)cc2C1=O (stereo not given)	93
CCCCCCCCCCCCC(Oc1ccc(O)c(C(C)(C)C)c1)C(=O)OCC (stereo not given)	45 to 48
CCC(CC)Nc1cc(C)nc2c1ncn2-c1c(C)cc(C)cc1C	78 to 80
Cc1cc(F)ccc1[C@@H]1CN(C2=CC(=O)CC2)CC[C@H]1C(=O)N(C)Cc1cc(C(F)(F)F)cc(C(F)(F)F)c1 (relative stereo)	192 to 193
CCCCCCCCCCCCc1csc(-c2c(Cl)c(Cl)c(-c3cc(CCCCCCCCCCCC)cs3)c3nsnc23)c1	79 to 80
C#CCNc1ccc([N+](=O)[O-])cc1C	121 to 123
O=[N+]([O-])c1ccc(NCCS(=O)(=O)NCCCOc2cccc(CN3CCCCC3)c2)cc1	140 to 142

SMILES	melting point [°C]
COc1cc2cc(N)cnc2cc1F	153
Cc1cc2n(c1)CN(CCCO)c1ccccc1-2	77 to 78
COc1ccc(C(=O)O)nc1C	183
O=C(Nc1c(C(O)(C(F)(F)F)C(F)(F)F)ccc2ccccc12)c1cc2ccccc2s1	132 to 134
O=C1C2=C(CCCC2)C(=O)N1CCCCCCN1C(=O)C2=C(CCCC2)C1=O	123 to 124
OCc1nnc2ccc(-c3cccc(C(F)(F)F)c3)nn12	224 to 226
CC(C)C1(C)N=C(c2nc3occc3cc2C(=O)O)NC1=O (stereo not given)	237 to 244
CCCCc1nc2c(N)nc3cc(/C=C/c4ccccc4)ccc3c2n1CC(C)C	215 to 216
Cn1c(=O)cc(-c2cccc(Cl)c2)c2cc(C(N)(c3ccc(Cl)cc3)c3cnccc3Cl)ccc21 (stereo not given)	180
Cc1ccc2c(c1)C1=NN(c3ccc(OCCCN4CCCCC4)cc3)C(=O)CC1CC2 (stereo not given)	171 to 172
CCC[C@H]1CC[C@H](CCCOc2ccc(C(=O)O[C@H](c3ccccc3)[C@H](OC(=O)c3ccc(OCCC[C@H]4CC[C@H](CCC)CC4)cc3)c3ccccc3)cc2)CC1	75
C=CCS(=O)c1ncc(Cl)cn1 (stereo not given)	82
CN1C(=O)C(C)(C)N=C(c2ccccc2F)c2cc(NC(=O)OCc3ccccc3)cc(Cl)c21	125 to 127
COc1cc2c(Nc3cccc(Br)c3)c(C#N)cnc2c(OC)c1OC	211 to 213
CN(C(=O)Cl)c1ccc(C(O)(C(F)(F)F)C(F)(F)F)cc1	152 to 154
O=CCCCOC(c1ccccc1)(c1ccccc1)c1ccccc1	62 to 65
O=C1OC(O)c2cccc(O)c21 (stereo not given)	124 to 126
CC(=O)Nc1cc(C)c2c(C)c(C)[nH]c2c1	255
Clc1ccccc1CCN1CCN(c2n[nH]c3c2CCc2ccccc2-3)CC1	134 to 136
Cc1c(-c2ccccc2)nc2ccc(NC(=O)c3cc4cc(F)ccc4n3Cc3cccc(F)c3)cn12	258 to 259

Continued, values first:

melting point [°C]	SMILES
189 to 191	CNC(=S)NS(=O)(=O)c1cc(CCNC(=O)c2cc(Cl)ccc2OC)ccc1-c1cccs1
108 to 110	CC(=O)OCC(=O)NCc1cccc2c1C(=O)N(C1CCC(=O)NC1=O)C2=O (stereo not given)
180 to 183	Cn1cc(C(=O)NCc2ccc(Cl)cc2)c(=O)c2cc(CN3CCOCC3)cc(C#CCO)c21
156 to 157	O=C1c2ccccc2C(O)(c2ccc(Cl)cc2)N1Cc1ccc(Cl)cc1 (stereo not given)
170 to 172	COc1nc2cc(Cl)c(Cl)c(C#Cc3ccccc3)c2nc1OC
58 to 61	COC(=O)c1cccc(OC)c1I
160 to 162	CCC(=O)N1C(=O)C(=O)c2cc(Cl)ccc21
135 to 136	CC(=O)c1cccc(C(=O)O)c1O
168 to 169	CN(C(CCn1c(=O)cc(C(F)(F)F)[nH]c1=O)C(=O)NO)S(=O)(=O)c1ccc(Oc2cccc(F)c2)cc1 (stereo not given)
176 to 177	COc1cccc(CC(=O)O)c1OCCCc1cn(-c2ccc(NS(C)(=O)=O)cn2)nc1C(C)C
260 to 261	C/C(=C\c1ccc(C(=O)O)cc1)c1ccc2c(c1)C(C)(C)C(=O)CC2(C)C
163 to 164	O=C1OC(CCOc2cccc3ccccc23)C(O)=C1O (stereo not given)
245 to 247	Cc1ccn(-c2cc(Nc3c(Cl)cc(Cl)cc3Cl)nc(C)n2)n1
86	CCCCc1oc2ccc(NS(C)(=O)=O)cc2c1C(=O)c1ccc(OCCN(CCCC)CCCC)cc1
124 to 127	COC(=O)NCc1cc(C(C)=NO)ccc1Cl
140 to 141	CSc1cc2c(cc1C(F)(F)F)N(C(=O)Nc1cccc(C(=O)N(C)CCN(C)C)c1)CC2

melting point [°C]	SMILES
81.5 to 83	CC(=N)Nc1ccc(CCc2nc(NC(C)=O)sc2Cc2ccc(S(C)(=O)=O)cc2)cc1
141 to 143	CCOC(=O)c1cc(-n2c(=O)c3c(n(C)c2=O)CCC3)ccc1Cl
138	COc1cccc(C2(CCC(=O)O)NC(=O)NC2=O)c1 (stereo not given)
184 to 187	COc1ccc(Oc2c(Cl)cc(-n3ncc(=O)[nH]c3=O)cc2Cl)cc1C=O
149 to 151	COC(=O)c1c(Cl)cc(Cl)cc1NC(=O)CSc1ccc(O)cc1
166 to 168	COc1cccc2c3c(c(=O)[nH]c12)CCN3c1ccccc1C
180 to 184	CC1=NN(c2ccc(Cl)cc2)C(c2ccc(N)c(C)c2)C1 (stereo not given)
121 to 124	O=C1CCN(C(=S)Nc2ccc(Cl)cc2)N1c1ccc(Cl)cc1
124	CCCC[C@H](NC(=O)[C@H](CC(C)C)NC(=O)c1ccc(OC)cc1)C(=O)CSCc1ccco1
295 to 296	Oc1ccc(-c2nc3ccc(O)cc3c(-c3ccc(F)cc3)c2Cl)cc1
165 to 166	CCc1nc2c(-c3ccc(Cl)cc3Cl)nccn2c1C(C)O (stereo not given)
70 to 73	CCCCC(NS(=O)(=O)c1ccc(Cl)cc1)C(=S)Nc1ccc(CC(=O)OCC)cc1 (racemic)
149	CCN1c2ncc(CCc3ccnc(C(=O)OC)c3)cc2C(=O)N(C)c2ccc(Cl)nc21
235 to 236	O=C(NCCc1cccc(-c2nc(=O)c3ccccc3s2)n1)Nc1ccccc1
198 to 199	Cc1cc(C(=O)NS(=O)(=O)Cc2ccccc2C(F)(F)F)nc(Cl)n1

— a melting point compilation (Tetko et al.; mined from patent text by program, amines drawn as free bases though some values may be those of a salt)
